Assays:
HCT-116 = test: Cytotoxicity assay (SRB), HCT-116; assay type: cell-based; conditions: Homo sapiens, HCT-116, 72 h, HCT116 cells, SRB, three days; read-out: In Vitro Cellular Activity IC50 HCT116
Method in brief: (§1)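 Cells grown in RPMI 1640 with 5% FBS were treated with compound for three days (HCT-116, LoVo, MCF-7) or six days (BT474). Viable cell mass was quantified by sulforhodamine B staining of TCA-fixed protein and read at 540 nm.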

cyclin B/CDK1 enzyme = biological target: T1, cyclin B/CDK1 enzyme (Homo sapiens, UniProt P06493); test: CDK1 ELISA kinase assay (phospho-Rb ser 795 detection); assay type: biochemical; conditions: In Vitro Enzyme Assays, read-out: CDK1 IC50
T1 construct: purchased New England BioLabs; host or cells: Sf9 insect cells, recombinant baculovirus
T1 sequence (P06493 whole entry): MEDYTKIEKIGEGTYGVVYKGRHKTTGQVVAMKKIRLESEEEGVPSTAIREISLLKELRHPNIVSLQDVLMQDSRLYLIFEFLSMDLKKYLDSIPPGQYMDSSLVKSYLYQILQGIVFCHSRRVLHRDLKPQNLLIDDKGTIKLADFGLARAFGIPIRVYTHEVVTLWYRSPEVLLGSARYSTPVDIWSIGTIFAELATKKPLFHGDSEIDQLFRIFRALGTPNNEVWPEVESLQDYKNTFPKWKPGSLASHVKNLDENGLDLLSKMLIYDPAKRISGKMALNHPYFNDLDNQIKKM
T1 sequence (P14635 whole entry partner): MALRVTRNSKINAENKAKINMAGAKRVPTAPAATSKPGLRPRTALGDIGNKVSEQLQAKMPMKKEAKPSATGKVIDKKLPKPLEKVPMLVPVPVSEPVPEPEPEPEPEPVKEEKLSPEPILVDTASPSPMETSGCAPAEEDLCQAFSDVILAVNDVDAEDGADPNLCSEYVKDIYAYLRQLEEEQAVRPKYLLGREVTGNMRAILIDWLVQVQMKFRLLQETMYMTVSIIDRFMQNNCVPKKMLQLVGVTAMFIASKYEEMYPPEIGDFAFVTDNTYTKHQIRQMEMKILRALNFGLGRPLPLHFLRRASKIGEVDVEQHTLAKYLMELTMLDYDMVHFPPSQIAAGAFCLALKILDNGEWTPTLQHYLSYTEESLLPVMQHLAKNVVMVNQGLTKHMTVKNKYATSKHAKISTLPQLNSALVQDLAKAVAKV
Method in brief: (§2)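 GST-Rb C-terminal fragment coated on plates; partially purified Sf9-expressed cyclin D1/CDK4, cyclin E/CDK2 or cyclin B/CDK1 with 200 μM ATP, pH 7.5 HEPES/MgCl2 buffer, 1 h at 30 °C; screen compound final 10 μg/ml. Phospho-Rb Ser795 detected by antibody ELISA (TMB, A450); % of control, IC50 from background-subtracted inhibition curves.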

MCF-7 = test: Cytotoxicity assay (SRB), MCF-7; assay type: cell-based; conditions: Homo sapiens, MCF7, 72 h, MCF-7 cells, SRB, three days; read-out: In Vitro Cellular Activity IC50 MCF-7
Method in brief: as §1

cyclin E/CDK2 enzyme = biological target: T2, cyclin E/CDK2 enzyme (Homo sapiens, UniProt P24941); test: CDK2 ELISA kinase assay (phospho-Rb ser 795 detection); assay type: biochemical; conditions: In Vitro Enzyme Assays, read-out: CDK2 IC50
T2 construct: made in house; host or cells: Sf9 insect cells, recombinant baculovirus
Method in brief: as §2

cyclin D1/cdk 4 enzyme = biological target: T3, cyclin D1/cdk 4 enzyme (Homo sapiens, UniProt P11802); test: CDK4 ELISA kinase assay (phospho-Rb ser 795 detection); assay type: biochemical; conditions: In Vitro Enzyme Assays, 200 μM ATP, read-out: CDK4 IC50
T3 construct: made in house; host or cells: Sf9 insect cells, recombinant baculovirus
T3 sequence (P11802 whole entry, species assumed): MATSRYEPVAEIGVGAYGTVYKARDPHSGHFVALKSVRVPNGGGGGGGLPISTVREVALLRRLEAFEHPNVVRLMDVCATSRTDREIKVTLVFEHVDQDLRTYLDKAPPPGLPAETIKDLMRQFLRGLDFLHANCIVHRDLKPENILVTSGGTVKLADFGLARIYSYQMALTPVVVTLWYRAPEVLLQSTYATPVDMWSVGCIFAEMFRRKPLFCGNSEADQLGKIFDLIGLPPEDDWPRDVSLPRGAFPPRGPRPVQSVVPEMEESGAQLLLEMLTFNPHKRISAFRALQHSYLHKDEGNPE
T3 sequence (P24385 whole entry partner, species assumed): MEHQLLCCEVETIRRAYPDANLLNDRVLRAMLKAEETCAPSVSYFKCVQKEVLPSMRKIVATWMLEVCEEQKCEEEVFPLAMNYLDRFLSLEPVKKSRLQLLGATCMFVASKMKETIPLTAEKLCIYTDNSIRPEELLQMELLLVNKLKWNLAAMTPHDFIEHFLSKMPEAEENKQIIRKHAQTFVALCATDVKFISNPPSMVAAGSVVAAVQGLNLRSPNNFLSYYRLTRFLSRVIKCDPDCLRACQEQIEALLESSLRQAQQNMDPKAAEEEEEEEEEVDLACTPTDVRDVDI
Method in brief: as §2

BT474 = test: Cytotoxicity assay (SRB), BT474; assay type: cell-based; conditions: Homo sapiens, BT-474, 144 h, BT474 cells, SRB, 6 days; read-out: In Vitro Cellular Activity IC50 BT474
Method in brief: as §1

LoVo = test: Cytotoxicity assay (SRB), LoVo; assay type: cell-based; conditions: Homo sapiens, LoVo, 72 h, LoVo cells, SRB, three days; read-out: In Vitro Cellular Activity IC50 LOVO
Method in brief: as §1

Row | Structure (SMILES) | IC50 (cyclin B/CDK1 enzyme) [µM] | IC50 (cyclin E/CDK2 enzyme) [µM] | IC50 (cyclin D1/cdk 4 enzyme) [µM] | melting point | IC50 (HCT-116) [µM] | IC50 (MCF-7) [µM] | IC50 (BT474) [µM] | IC50 (LoVo) [µM]
1 | C[C@@H]1CN(c2ccc(N/C=C3\C(=O)NC(=O)c4ccc(-c5ccoc5)cc43)cc2)C[C@H](C)N1C [Example 241, (4Z)-6-(3-Furyl)-4-[({4-[(3R,5S)-3,4,5-trimethylpiperazin-1-yl]phenyl}amino)-methylene]isoquinoline-1,3(2H,4H)-dione] | > 50 | > 50 | 0.45 | 204 to 205 °C | 1.9 | 1.3 | 1.2 | 3.8
2 | CCCOc1ccc(CN/C=C2\C(=O)NC(=O)c3cc(OC)c(Br)cc32)cc1O [Example 246, 6-Bromo-4-[(3-hydroxy-4-propoxy-benzylamino)-methylene]-7-methoxy-4H-isoquinoline-1,3-dione] | > 50 | > 50 | 28.3 | 212 to 214 °C (dec.) | 22 | > 50 | 2 | 37
3 | CN1CCN(c2ccc(N/C=C3\C(=O)NC(=O)c4ccc(Br)cc43)cn2)CC1 [Example 250, (4Z)-6-Bromo-4-({[6-(4-methylpiperazin-1-yl)pyridin-3-′yl]amino}methylene)isoquinoline-1,3(2H,4H)-dione] | > 50 | > 50 | 2.8 | 265 to 266 °C | 6.2 | 1.6 | 7.6 | 7.1
4 | COc1cc2c(cc1-c1ccc(F)cc1)/C(=C/Nc1ccc(CN3CCCCC3)cc1)C(=O)NC2=O [Example 253, 6-(4-Fluoro-phenyl)-7-methoxy-4-[(4-piperidin-1-ylmethyl-phenylamino)-methylene]-4H-isoquinoline-1,3-dione] | > 50 | > 50 | 2.9 | 227 to 230 °C | 1.1 | 2 | 2.8 | 2.6
5 | COc1cc2c(cc1-c1ccoc1)/C(=C/Nc1ccc(N3CCN(C)CC3)cc1)C(=O)NC2=O [Example 254, 6-Furan-3-yl-7-methoxy-4-{[4-(4-methyl-piperazin-1-yl)-phenylamino]-methylene}-4H-isoquinoline-1,3-dione] | > 50 | > 50 | 7.4 | 198 to 220 °C | 2 | 2.4 | 2.1 | 4.8
6 | CO[C@@H]1CCN(Cc2ccc(N/C=C3\C(=O)NC(=O)c4ccc(I)cc43)cc2)C1 [Example 264, (4Z)-6-Iodo-4-{[(4-{[(3R)-3-methoxypyrrolidin-1-yl]methyl}phenyl)amino]methylene}isoquinoline-1,3(2H,4H)-dione] | > 50 | > 50 | 1 | 160 to 161 °C | 4.4 | 2 | 2.2 | 8.8
7 | CO[C@H]1CCN(Cc2ccc(N/C=C3\C(=O)NC(=O)c4ccc(-c5ccc(F)cc5)cc43)cc2)C1 [Example 265, (4Z)-6-(4-Fluorophenyl)-4-{[(4-{[(3S)-3-methoxypyrrolidin-1-yl]methyl}phenyl)amino]methylene}isoquinoline-1,3(2H,4H)-dione] | > 50 | > 50 | 0.3 | 145 to 146 °C | 2 | 1.4 | 1.7 | 2.8
8 | CO[C@@H]1CCN(Cc2ccc(N/C=C3\C(=O)NC(=O)c4ccc(Br)cc43)cc2)C1 [Example 266, (4Z)-6-Bromo-4-{[(4-{[(3R)-3-methoxypyrrolidin-1-yl]methyl}phenyl)amino]methylene}isoquinoline-1,3(2H,4H)-dione] | > 50 | > 50 | 1.9 | 132 to 133 °C | 6.2 | 4 | 9.1 | 8.4

Now from value to molecule, other results behind:

Row | IC50 (cyclin B/CDK1 enzyme) [µM] | IC50 (cyclin E/CDK2 enzyme) [µM] | IC50 (cyclin D1/cdk 4 enzyme) [µM] | melting point | Structure (SMILES) | IC50 (HCT-116) [µM] | IC50 (MCF-7) [µM] | IC50 (BT474) [µM] | IC50 (LoVo) [µM]
9 | 31.7 | > 50 | 13.9 | 270 to 271 °C | CN1CCN(NC(=O)Nc2ccc(N/C=C3\C(=O)NC(=O)c4ccc(Br)cc43)cc2)CC1 [Example 217, N-(4-{[(Z)-(6-Bromo-1,3-dioxo-2,3-dihydroisoquinolin-4(1H)-′ylidene)methyl]amino}phenyl)-N′-(4-methylpiperazin-1-yl)urea] | 2.6 | 7.4 | 3.3 | 4.8
10 | > 50 | > 50 | 0.15 | 278 to 279 °C | O=C1NC(=O)c2ccc(Br)cc2/C1=C/NCc1ccc(NC(=O)C(F)(F)F)c(O)c1 [Example 218, N-[4-({[(Z)-(6-Bromo-1,3-dioxo-2,3-dihydroisoquinolin-4(1H)-′ylidene)methyl]amino}methyl)-2-hydroxyphenyl]-2,2,2-trifluoroacetamide] | 3.3 | 19 | 2.6 | 4.5
11 | > 50 | > 50 | 0.27 | 210 to 211 °C | O=C1NC(=O)c2ccc(Br)cc2/C1=C/NCc1ccc(OCC2CC2)c(O)c1 [Example 219, (4Z)-6-Bromo-4-({[4-(cyclopropylmethoxy)-3-′hydroxybenzyl]amino}methylene)isoquinoline-1,3(2H,4H)-dione] | 2.8 | 32 | 1.9 | 6.9
12 | > 50 | > 50 | 3.3 | 141 to 142 °C | CN1CCN(c2ccc(N/C=C3\C(=O)N(CO)C(=O)c4ccc(Br)cc43)cc2)CC1 [Example 220, (4Z)-6-Bromo-2-(hydroxymethyl)-4-({[4-(4-methylpiperazin-1-yl)phenyl]amino}methylene)isoquinoline-1,3(2H,4H)-dione] | 3.2 | 2.4 | 3.3 | 3.8
13 | > 50 | 2.4 | 0.4 | 264 to 265 °C | Cc1ccc(C)n1-c1ccc2c(c1)/C(=C/Nc1ccc(N3CCN(C)CC3)cc1)C(=O)NC2=O [Example 226, (4Z)-6-(2,5-Dimethyl-1H-pyrrol-1-yl)-4-({[4-(4-methylpiperazin-1-′yl)phenyl]amino}methylene)isoquinoline-1,3(2H,4H)-dione] | 2.4 | 5.2 | 3.3 | 4.4
14 | > 50 | 38 | 27.7 | 176 to 178 °C | CCCOc1ccc(CN/C=C2\C(=O)N(O)C(=O)c3ccccc32)cc1O [Example 230, 2-Hydroxy-4-[(3-hydroxy-4-propoxy-benzylamino)-methylene]-4H-isoquinoline-1,3-dione] | 2.1 | 3.1 | 6.4 | 3.8
15 | 32.4 | 22.6 | 0.44 | 189 to 190 °C | CN1CCN(c2ccc(N/C=C3\C(=O)NC(=O)c4ccc(I)cc43)cn2)CC1 [Example 237, (4Z)-6-Iodo-4-({[6-(4-methylpiperazin-1-yl)pyridin-3-′yl]amino}methylene)isoquinoline-1,3(2H,4H)-dione] | 2.6 | 4 | 3.2 | 7.4
16 | > 50 | 4.2 | 0.31 | 215 to 216 °C | CN1CCC(c2ccc(N/C=C3\C(=O)NC(=O)c4ccc(I)cc43)cc2)CC1 [Example 239, (4Z)-6-Iodo-4-({[4-(1-methylpiperidin-4-yl)phenyl]amino}methylene)isoquinoline-1,3(2H,4H)-dione] | 2.5 | 4 | 7.9 | 7.7
17 | > 50 | > 50 | 17.3 | 213 to 214 °C | C[C@@H]1CN(c2ccc(N/C=C3\C(=O)NC(=O)c4ccc(Br)cc43)cc2)C[C@H](C)N1C [Example 240, (4Z)-6-Bromo-4-[({4-[(3R,5S)-3,4,5-trimethylpiperazin-1-yl]phenyl}amino)methylene]-isoquinoline-1,3(2H,4H)-dione] | 2.7 | 2 | 3.1 | 3.7
18 | 16.5 | 1.7 | 0.008 | 254 to 255 °C | O=C1NC(=O)c2ccc(I)cc2/C1=C/NCc1ccc(OC(F)F)c(O)c1 [Example 267] | 3.7 | 4.8 | 3.5 | 3.7

From US7713994B2 (Wyeth LLC, priority 2005, dated 2010)
